From US20250282799A1, “SUBSTITUTED PYRIDO[4,3-d]PYRIMIDINES AS KRAS MODULATORS” (Alterome Therapeutics, Inc., priority 2023, published 2025) come the findings set out here.

Usually IC50 stands for the concentration needed to halve the response being measured.

This assay relates to KRAS G12V dependent lung adenocarcinoma cell line, NCI-H441. In words: Cellular pERK (Thr202/Tyr204) FRET/HTRF assay. The assay is classed as cell-based. To be noted: Homo sapiens, NCI-H441, cellular pERK (Thr202/Tyr204) HTRF, NCI-H441 cells. A digest of the protocol:
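Adherent NCI-H441 cells, plated the previous night, receive test compound for one hour at 37 °C. They are then lysed with a buffer containing phosphatase inhibitors and incubated at room temperature with Eu3+-cryptate and d2 labelled anti-pERK antibodies. HTRF signal gives IC50 by curve fitting.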
Background: In TR-FRET formats the signal depends on donor and acceptor labels being close together.
Consider `[2H]C([2H])(Oc1nc(N2CCOC[C@H]3[C@H](F)[C@H]32)c2cnc(-c3c(F)c(N)c(F)c(C)c3C(F)(F)F)c(F)c2n1)[C@@]12CCCN1C[C@H](F)C2` [Example 279, 2,6-difluoro-3-(8-fluoro-4-((1S,7S,8S)-8-fluoro-5-oxa-2-azabicyclo[5.1.0]octan-2-yl)-2-(((2R,7aS)-2-fluorotetrahydro-1H-pyrrolizin-7a(5H)-yl)methoxy-d2)pyrido[4,3-d]pyrimidin-7-yl)-5-methyl-4-(trifluoromethyl)aniline], for which the IC50 lay within 50 to 500 nM.

Consider `C#Cc1c(F)ccc2cc(O)cc(-c3ncc4c(N5CCCO[C@@H]6C[C@@H]65)nc(OC[C@H]5CCCN5C)nc4c3F)c12` [Example 280, 4-(4-((1R,7S)-2-oxa-6-azabicyclo[5.1.0]octan-6-yl)-8-fluoro-2-(((R)-1-methylpyrrolidin-2-yl)methoxy)pyrido[4,3-d]pyrimidin-7-yl)-5-ethynyl-6-fluoronaphthalen-2-ol], for which the IC50 lay in the range of 50 to 500 nM.

As to `C#Cc1c(F)ccc2cc(O)cc(-c3ncc4c(N5CCCO[C@H]6C[C@H]65)nc(OC[C@@]5(C)CCCN5)nc4c3F)c12` [Example 281, 4-(4-((1S,7R)-2-oxa-6-azabicyclo[5.1.0]octan-6-yl)-8-fluoro-2-(((R)-2-methylpyrrolidin-2-yl)methoxy)pyrido[4,3-d]pyrimidin-7-yl)-5-ethynyl-6-fluoronaphthalen-2-ol], the IC50 was in the range of 500 to 10000 nM.

With `C#Cc1c(F)ccc2cc(O)cc(-c3ncc4c(N5CCCO[C@@H]6C[C@@H]65)nc(OC[C@@]5(C)CCCN5)nc4c3F)c12` [Example 282, 4-(4-((1R,7S)-2-oxa-6-azabicyclo[5.1.0]octan-6-yl)-8-fluoro-2-(((R)-2-methylpyrrolidin-2-yl)methoxy)pyrido[4,3-d]pyrimidin-7-yl)-5-ethynyl-6-fluoronaphthalen-2-ol], the IC50 was in the range of 500 to 10000 nM.

Consider `C#Cc1c(F)ccc2cc(O)cc(-c3ncc4c(N5CCCO[C@H]6C[C@H]65)nc(OC[C@@]5(C)CCCN5C)nc4c3F)c12` [Example 283, 4-(4-((1S,7R)-2-oxa-6-azabicyclo[5.1.0]octan-6-yl)-2-(((R)-1,2-dimethylpyrrolidin-2-yl)methoxy)-8-fluoropyrido[4,3-d]pyrimidin-7-yl)-5-ethynyl-6-fluoronaphthalen-2-ol], for which the IC50 is less than 50 nM.

On to `C#Cc1c(F)ccc2cc(O)cc(-c3ncc4c(N5CCOC[C@H]6[C@H](F)[C@H]65)nc(OC[C@H]5CCCN5C)nc4c3F)c12` [Example 284, 5-ethynyl-6-fluoro-4-(8-fluoro-4-((1S,7S,8S)-8-fluoro-5-oxa-2-azabicyclo[5.1.0]octan-2-yl)-2-(((R)-1-methylpyrrolidin-2-yl)methoxy)pyrido[4,3-d]pyrimidin-7-yl)naphthalen-2-ol], for which the IC50 was less than 50 nM.

`C#Cc1c(F)ccc2cc(O)cc(-c3ncc4c(N5CCOC[C@H]6[C@H](F)[C@H]65)nc(OC[C@@H]5CCCN5C)nc4c3F)c12` [Example 285, 5-ethynyl-6-fluoro-4-(8-fluoro-4-((1S,7S,8S)-8-fluoro-5-oxa-2-azabicyclo[5.1.0]octan-2-yl)-2-(((S)-1-methylpyrrolidin-2-yl)methoxy)pyrido[4,3-d]pyrimidin-7-yl)naphthalen-2-ol] registered an IC50 of less than 50 nM.

`[2H]C([2H])(Oc1nc(N2CCOC[C@H]3[C@H](F)[C@H]32)c2cnc(-c3cc(N)cc4ccc(F)c(C#C)c34)c(F)c2n1)[C@@]12CCCN1C[C@@H](C#N)C2` [Example 286, (2S,7aS)-7a-(((7-(3-amino-8-ethynyl-7-fluoronaphthalen-1-yl)-8-fluoro-4-((1S,7S,8S)-8-fluoro-5-oxa-2-azabicyclo[5.1.0]octan-2-yl)pyrido[4,3-d]pyrimidin-2-yl)oxy)methyl-d2)hexahydro-1H-pyrrolizine-2-carbonitrile] registered an IC50 of less than 50 nM.

Take `C#Cc1c(F)ccc2cc(N)cc(-c3ncc4c(N5CCOC[C@H]6[C@H](F)[C@H]65)nc(OC[C@@]56CC[C@@H](C)N5C[C@H](F)C6)nc4c3F)c12` [Example 287, 5-Ethynyl-6-fluoro-4-(8-fluoro-2-(((2R,5R,7aS)-2-fluoro-5-methyltetrahydro-1H-pyrrolizin-7a(5H)-yl)methoxy)-4-((1S,7S,8S)-8-fluoro-5-oxa-2-azabicyclo[5.1.0]octan-2-yl)pyrido[4,3-d]pyrimidin-7-yl)naphthalen-2-amine]: the IC50 was less than 50 nM.

`C#Cc1c(F)ccc2cc(N)cc(-c3ncc4c(N5CCOC[C@H]6[C@H](F)[C@H]65)nc(OC[C@@H]5CCCN5C)nc4c3F)c12` [Example 288, 5-ethynyl-6-fluoro-4-(8-fluoro-4-((1S,7S,8S)-8-fluoro-5-oxa-2-azabicyclo[5.1.0]octan-2-yl)-2-(((S)-1-methylpyrrolidin-2-yl)methoxy)pyrido[4,3-d]pyrimidin-7-yl)naphthalen-2-amine] showed an IC50 of less than 50 nM.

For `[2H]C([2H])(Oc1nc(N2CCOC[C@H]3[C@H](F)[C@H]32)c2cnc(-c3cc(N)c(F)c(Cl)c3C(F)(F)F)c(F)c2n1)[C@@]12CCCN1C[C@H](F)C2` [Example 289, 3-chloro-2-fluoro-5-(8-fluoro-4-((1S,7S,8S)-8-fluoro-5-oxa-2-azabicyclo[5.1.0]octan-2-yl)-2-(((2R,7aS)-2-fluorotetrahydro-1H-pyrrolizin-7a(5H)-yl)methoxy-d2)pyrido[4,3-d]pyrimidin-7-yl)-4-(trifluoromethyl)aniline], the IC50 was less than 50 nM.

`[2H]C([2H])(Oc1nc(N2CCOC[C@H]3[C@H](Cl)[C@H]32)c2cnc(-c3cccc4ccc(F)c(C#C)c34)c(F)c2n1)[C@@]12CCCN1C[C@H](F)C2` [Example 290, (1S,7S,8S)-8-chloro-2-(7-(8-ethynyl-7-fluoronaphthalen-1-yl)-8-fluoro-2-(((2R,7aS)-2-fluorotetrahydro-1H-pyrrolizin-7a(5H)-yl)methoxy-d2)pyrido[4,3-d]pyrimidin-4-yl)-5-oxa-2-azabicyclo[5.1.0]octane] yielded an IC50 of less than 50 nM.

`[2H]C([2H])(Oc1nc(N2CCOC[C@H]3[C@H](F)[C@H]32)c2c(Cl)nc(-c3cc(N)cc4ccc(F)c(C#C)c34)c(F)c2n1)[C@@]12CCCN1C[C@H](F)C2` [Example 291, 4-(5-Chloro-8-fluoro-4-((1S,7S,8S)-8-fluoro-5-oxa-2-azabicyclo[5.1.0]octan-2-yl)-2-(((2R,7aS)-2-fluorotetrahydro-1H-pyrrolizin-7a(5H)-yl)methoxy-d2)pyrido[4,3-d]pyrimidin-7-yl)-5-ethynyl-6-fluoronaphthalen-2-amine] showed an IC50 of less than 50 nM.

`[2H]C([2H])(Oc1nc(N2CCCOC3C2C3(Cl)Cl)c2cnc(-c3cc(N)cc4ccc(F)c(C#C)c34)c(F)c2n1)[C@@]12CCCN1C[C@H](F)C2` (stereo partly drawn) [Example 292, 4-(4-(8,8-dichloro-2-oxa-6-azabicyclo[5.1.0]octan-6-yl)-8-fluoro-2-(((2R,7aS)-2-fluorotetrahydro-1H-pyrrolizin-7a(5H)-yl)methoxy-d2)pyrido[4,3-d]pyrimidin-7-yl)-5-ethynyl-6-fluoronaphthalen-2-amine]: the IC50 was 50 to 500 nM.

Consider `C#Cc1c(Cl)ccc2cc(O)cc(-c3ncc4c(N5CCOC[C@H]6[C@H](F)[C@H]65)nc(OC[C@@H]5CCCN5C)nc4c3F)c12` [Example 294, 6-chloro-5-ethynyl-4-(8-fluoro-4-((1S,7S,8S)-8-fluoro-5-oxa-2-azabicyclo[5.1.0]octan-2-yl)-2-(((S)-1-methylpyrrolidin-2-yl)methoxy)pyrido[4,3-d]pyrimidin-7-yl)naphthalen-2-ol], for which the IC50 was less than 50 nM.

Compound `C#Cc1cccc2cc(O)cc(-c3ncc4c(N5CCOC[C@H]6[C@H](F)[C@H]65)nc(OC[C@@H]5CCCN5C)nc4c3F)c12` [Example 295, 5-ethynyl-4-(8-fluoro-4-((1S,7S,8S)-8-fluoro-5-oxa-2-azabicyclo[5.1.0]octan-2-yl)-2-(((S)-1-methylpyrrolidin-2-yl)methoxy)pyrido[4,3-d]pyrimidin-7-yl)naphthalen-2-ol] came in with an IC50 of less than 50 nM.

For `C#Cc1c(Cl)ccc2cc(N)cc(-c3ncc4c(N5CCOC[C@H]6[C@H](F)[C@H]65)nc(OC[C@@H]5CCCN5C)nc4c3F)c12` [Example 296, 6-chloro-5-ethynyl-4-(8-fluoro-4-((1S,7S,8S)-8-fluoro-5-oxa-2-azabicyclo[5.1.0]octan-2-yl)-2-(((S)-1-methylpyrrolidin-2-yl)methoxy)pyrido[4,3-d]pyrimidin-7-yl)naphthalen-2-amine], the half-maximal inhibitory concentration (IC50) is less than 50 nM.

The compound `C#Cc1cccc2cc(N)cc(-c3ncc4c(N5CCOC[C@H]6[C@H](F)[C@H]65)nc(OC[C@@H]5CCCN5C)nc4c3F)c12` [Example 297, 5-ethynyl-4-(8-fluoro-4-((1S,7S,8S)-8-fluoro-5-oxa-2-azabicyclo[5.1.0]octan-2-yl)-2-(((S)-1-methylpyrrolidin-2-yl)methoxy)pyrido[4,3-d]pyrimidin-7-yl)naphthalen-2-amine] came in with an IC50 of less than 50 nM.

In the case of `[2H]C([2H])(Oc1nc(N2CCOC[C@H]3[C@H](F)[C@H]32)c2cnc(-c3cc(O)cc(Cl)c3C(F)(F)F)c(F)c2n1)[C@@]12CCCN1C[C@H](F)C2` [Example 298, 3-chloro-5-(8-fluoro-4-((1S,7S,8S)-8-fluoro-5-oxa-2-azabicyclo[5.1.0]octan-2-yl)-2-(((2R,7aS)-2-fluorotetrahydro-1H-pyrrolizin-7a(5H)-yl)methoxy-d2)pyrido[4,3-d]pyrimidin-7-yl)-4-(trifluoromethyl)phenol], the concentration for half-maximal inhibition (IC50) is less than 50 nM.

`[2H]C([2H])(Oc1nc(N2CCOC[C@H]3[C@H](F)[C@H]32)c2cnc(-c3cc(N)c(F)cc3C(F)(F)F)c(F)c2n1)[C@@]12CCCN1C[C@H](F)C2` [Example 299, 2-fluoro-5-(8-fluoro-4-((1S,7S,8S)-8-fluoro-5-oxa-2-azabicyclo[5.1.0]octan-2-yl)-2-(((2R,7aS)-2-fluorotetrahydro-1H-pyrrolizin-7a(5H)-yl)methoxy-d2)pyrido[4,3-d]pyrimidin-7-yl)-4-(trifluoromethyl)aniline] registered an IC50 of 50 to 500 nM.
